Target: T1, human recombinant Dipeptidyl peptidase IV enzyme (DPP-IV) (Homo sapiens, UniProt P27487)
T1 construct: purchased R&D Systems Inc. of Minneapolis, Minn
Assay: in-vitro DPP-IV assay (cleavage of AMC from Gly-Pro-AMC)
Format: biochemical
Conditions: human recombinant DPP-IV, Gly-Pro-AMC substrate, 30° C., 30 minutes; read-out: DPP-IV inhibition using human recombinant DPP-IV enzyme, IC50
Description: DPP-IV activity was determined by the cleavage rate of 7-amino-4-methyl coumarin (AMC) from the synthetic substrate Glycyl-Prolyl-AMC. In brief, the assay was conducted by adding 10 ng of human recombinant Dipeptidyl peptidase IV enzyme (DPP-IV, available commercially from R&D Systems Inc. of Minneapolis, Minn.) in 50 μl of the assay buffer (25 mM Tris, pH 7.4, 140 mM NaCl, 10 mM KCl, 1% BSA) to 96 well black flat bottom microtiter plates. The reaction was initiated by adding 50 μl of 100 μM substrate Gly-Pro-AMC. The incubation was carried out in the kinetic mode at 30° C. for 30 minutes. Fluorescence was measured using Fluorostar with an excitation filter of 380 nm and emission filter of 460 nm. Test compounds and solvent controls were added as 1 μl additions. A standard curve of free amino methyl coumarin (AMC) was generated using 0-100 μM AMC in the assay buffer. The curve generated, which was linear was used for the interpolation of catalytic activity.
Test compounds dissolved in DMSO at 5-6 concentrations were tested in duplicate along with the solvent control and blank samples. Percent inhibition was calculated at each concentration with respect to the solvent control sample (no test compound added). […]

T1 sequence (P27487 whole entry): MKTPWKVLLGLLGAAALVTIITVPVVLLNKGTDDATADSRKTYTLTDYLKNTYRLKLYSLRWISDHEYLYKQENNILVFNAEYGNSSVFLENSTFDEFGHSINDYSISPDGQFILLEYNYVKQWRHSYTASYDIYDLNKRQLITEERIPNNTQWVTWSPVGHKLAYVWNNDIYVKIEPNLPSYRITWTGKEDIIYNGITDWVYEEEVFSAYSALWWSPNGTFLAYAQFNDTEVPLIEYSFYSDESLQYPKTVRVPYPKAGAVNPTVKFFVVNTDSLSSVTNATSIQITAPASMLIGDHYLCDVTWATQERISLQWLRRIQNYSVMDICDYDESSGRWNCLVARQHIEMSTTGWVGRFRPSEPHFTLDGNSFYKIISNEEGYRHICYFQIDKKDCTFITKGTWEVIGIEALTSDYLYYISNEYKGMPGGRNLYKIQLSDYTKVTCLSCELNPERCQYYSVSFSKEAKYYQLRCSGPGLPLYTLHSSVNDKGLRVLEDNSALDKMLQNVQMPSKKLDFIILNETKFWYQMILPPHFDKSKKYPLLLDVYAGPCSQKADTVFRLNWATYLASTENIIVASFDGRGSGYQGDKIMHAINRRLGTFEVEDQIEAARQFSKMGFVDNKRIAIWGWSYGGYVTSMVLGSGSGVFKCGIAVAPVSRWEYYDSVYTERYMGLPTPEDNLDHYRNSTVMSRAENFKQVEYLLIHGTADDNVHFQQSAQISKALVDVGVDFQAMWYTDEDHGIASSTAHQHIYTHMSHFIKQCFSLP

Compound | IC50 [nM]
N#CCC[C@H]1CC[C@@H](NCC(=O)N2C[C@@H](F)C[C@H]2C#N)C1 [Example-9, 3-((1R,3R)-3-{2-[(2S,4S)-2-Cyano-4-fluoropyrrolidin-1-yl]-2-oxoethylamino}-cyclopentyl)propanenitrile] | 3.93
N#C[C@@H]1CCCN1C(=O)CN[C@@H]1CC[C@H](Cn2cnc3ccccc32)C1 [Example-69, (2S)-1-{2-[(3S,1R)-3-(1H-Benzo[d]imidazol-1-ylmethyl)cyclopenylamino]acetyl}-pyrrolidine-2-carbonitrile] | 4.45
N#C[C@@H]1CCCN1C(=O)CN[C@@H]1CC[C@H](CNC(=O)Nc2ccccc2)C1 [Example-13, N1-Phenyl-N3-((1S,3R)-3-{2-[(2S)-2-cyanopyrrolidin-1-yl]-2-oxoethylamino}-cyclopentylmethyl)urea] | 31.9
N#C[C@@H]1CCCN1C(=O)CN[C@@H]1CC[C@H](CN2CCOCC2)C1 [Example-19, (2S)-1-{2-[(3S,1R)-3-Morpholinomethylcyclopentylamino]acetyl}pyrrolidine-2-carbonitrile] | 20.1
CN1CCN(CC2CCC(NCC(=O)N3CCC[C@H]3C#N)C2)CC1 (mixture of isomers) [Example-20, (2S)-1-{2-[(3SR,1RS)-3-(4-Methylpiperazinomethyl)cyclopentylamino]acetyl}-pyrrolidine-2-carbonitrile] | 123
N#C[C@@H]1C[C@H](F)CN1C(=O)CN[C@H]1CC[C@@H](Cn2cncn2)C1 [Example-52, (2S,4S)-1-{2-[(1S,3R)-3-(1H-1,2,4-Triazol-1-ylmethyl)cyclopentylamino]acetyl}-4-fluoropyrrolidine-2-carbonitrile] | 3.54
N#C[C@@H]1CCCN1C(=O)CN[C@@H]1CC[C@H](Cn2cnnn2)C1 [Example-59, (2S)-1-{2-[(3S,1R)-3-[1H-1 ,2,3,4-Tetrazol-1-ylmethyl]cyclopentylamino]acetyl}-pyrrolidine-2-carbonitrile] | 9.12
N#C[C@@H]1CCCN1C(=O)CN[C@@H]1CC[C@H](Cn2nnc3ccccc32)C1 [Example-70, (2S)-1-{2-[(3S,1R)-3-(2H-Benzo[d][1,2,3]triazol-1-ylmethyl)cyclopentylamino]-acetyl}pyrrolidine-2-carbonitrile] | 3.43
